# Measurements from patent US20240327417A1, “HETEROCYCLIC COMPOUNDS” (BeiGene Switzerland GmbH, priority 2021, published 2024).
# Tests used:
# [1] = molecular target: T1, Full length DGKα (D21-10BG, SignalChem) (Homo sapiens, UniProt P23743); test: Biochemical DGK IC50 assay (ADP-Glo, lipid micelle substrate), DGKα; conditions: 7.5 nM enzyme, 140 μM ATP, 80 μM DAG, 1 hour preincubation, 1 hour reaction, room temperature, read-out: IC50s for DGKα
# T1 construct: Full length DGKα (D21-10BG, SignalChem); purchased SignalChem D21-10BG
# Procedure: (§1) Enzymatic reactions of DGKζ, DGKα and DGKδ were performed using ADP-Glo assay with lipid micelle substrate. […] Full length DGKα (D21-10BG, SignalChem) and full length DGKδ (D23-10G, SignalChem) were purchased. Lipid micelle was prepared by dissolving DAG (Sigma, 317505-10MG) and PS (Sigma, P7769-100MG) with chloroform which was firtherly removed by rotary evaporation. The obtained residue was resuspended in buffer containing 25 mM HEPES pH 7.0, 0.5 mM EDTA and 160 mM Octyl β-D glucopyranoside by vigorous mixing and ultrasonic (IID, Scientz).
# (§2) The inhibition activities testing for the compound disclosed herein were carried out at room temperature in assay buffer containing 50 mM HEPES, 10 mM MgCl2, 0.01% BSA, 0.1 mM Na3VO4, 0.005% Tween-20 and 0.01 mM CaCl2. Compounds in DMSO were dispensed into wells of a black 384 well plate (Corning 4514) using D300e digital dispenser (Tecan). The ranges of compounds final concentration were 1.55˜10000 nM or 23.3˜150000 nM. 3 μL 2× enzyme solution was added to wells. […] After 1 hour reaction, 5 μL ADP-Glo reagent (Promga V9101) was added and incubated for 40 minutes. 10 μL Kinase Detection reagent was added and incubated for 30 minutes. Luminescence was measured on a microplate reader (PHERAstar FSX, BMG labtech). The IC50s are calculated based on inhibition of enzyme activity in the presence of increasing concentrations of compounds.
# [2] = molecular target: T2, Full length DGKζ (in-house protein M1-V929) (Homo sapiens, UniProt Q13574); test: Biochemical DGK IC50 assay (ADP-Glo, lipid micelle substrate), DGKζ; conditions: 0.5 nM enzyme, 140 μM ATP, 80 μM DAG, 1 hour preincubation, 1 hour reaction, room temperature, read-out: IC50s for DGKζ
# T2 construct: His (N); TEV cleavage site (N); made in house; host or cells: Sf9 insect cells (baculovirus, Bac-to-Bac)
# Procedure: as §1, §2
# Human His-TEV-DGK-zeta-pFastBac1 and human baculovirus samples was generated using the Bac-to-Bac baculovirus expression system (Invitrogen) according to the manufacturer's protocol. The DNA used for expression of DGK-zeta, have SEQ ID Nos: 1. Baculovirus amplification was achieved using infected SF9 cells at 1:2000 virus/cells ratios, and grown for 96 hours at 27° C. post-transfected.
# The expression scaled up for each protein was carried out in the […] from CORNING. 4 L of 3×10^6 cells/mL Sf9 cells (Expression System, Invitrogen) grown in SF900™ II SFM insect medium (Expression System) was infected with virus stock at 1:200 virus/cells ratio, and grown for 48 hours at 27° C. post-transfection. The infected cell culture was harvested by centrifugation at 6000 rpm for 15 min 4° C. in a SORVALL LYNX6000 centrifuge. The cell pellets were stored at −80° C.
# Full length human DGKζ produced as described above, was purified from Sf9 baculovirus-infected insect cell paste. The cells were lysed using sonication method, and the lysates were clarified by centrifugation.
# T1 sequence (P23743 whole entry): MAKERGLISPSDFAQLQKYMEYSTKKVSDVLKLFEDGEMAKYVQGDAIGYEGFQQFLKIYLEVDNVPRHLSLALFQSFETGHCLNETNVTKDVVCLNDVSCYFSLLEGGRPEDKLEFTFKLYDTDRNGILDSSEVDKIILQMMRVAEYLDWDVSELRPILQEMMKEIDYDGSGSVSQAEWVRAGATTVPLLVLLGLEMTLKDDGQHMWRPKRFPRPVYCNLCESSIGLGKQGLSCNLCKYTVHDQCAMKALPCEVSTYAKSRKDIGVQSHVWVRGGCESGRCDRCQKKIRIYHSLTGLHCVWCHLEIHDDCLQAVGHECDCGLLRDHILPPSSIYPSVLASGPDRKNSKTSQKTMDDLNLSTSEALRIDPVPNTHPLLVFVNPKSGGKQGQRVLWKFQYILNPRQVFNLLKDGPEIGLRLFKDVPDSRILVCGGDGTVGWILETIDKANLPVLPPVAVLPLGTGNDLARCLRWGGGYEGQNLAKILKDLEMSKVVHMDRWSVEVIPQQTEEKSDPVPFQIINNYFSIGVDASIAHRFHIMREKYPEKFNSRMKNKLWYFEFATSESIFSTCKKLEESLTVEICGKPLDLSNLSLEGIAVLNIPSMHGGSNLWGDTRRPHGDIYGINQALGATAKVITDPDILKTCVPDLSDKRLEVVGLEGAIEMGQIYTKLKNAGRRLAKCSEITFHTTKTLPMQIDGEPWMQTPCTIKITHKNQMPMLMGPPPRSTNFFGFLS
# T2 sequence (Q13574 1-929 isoform Q13574-4): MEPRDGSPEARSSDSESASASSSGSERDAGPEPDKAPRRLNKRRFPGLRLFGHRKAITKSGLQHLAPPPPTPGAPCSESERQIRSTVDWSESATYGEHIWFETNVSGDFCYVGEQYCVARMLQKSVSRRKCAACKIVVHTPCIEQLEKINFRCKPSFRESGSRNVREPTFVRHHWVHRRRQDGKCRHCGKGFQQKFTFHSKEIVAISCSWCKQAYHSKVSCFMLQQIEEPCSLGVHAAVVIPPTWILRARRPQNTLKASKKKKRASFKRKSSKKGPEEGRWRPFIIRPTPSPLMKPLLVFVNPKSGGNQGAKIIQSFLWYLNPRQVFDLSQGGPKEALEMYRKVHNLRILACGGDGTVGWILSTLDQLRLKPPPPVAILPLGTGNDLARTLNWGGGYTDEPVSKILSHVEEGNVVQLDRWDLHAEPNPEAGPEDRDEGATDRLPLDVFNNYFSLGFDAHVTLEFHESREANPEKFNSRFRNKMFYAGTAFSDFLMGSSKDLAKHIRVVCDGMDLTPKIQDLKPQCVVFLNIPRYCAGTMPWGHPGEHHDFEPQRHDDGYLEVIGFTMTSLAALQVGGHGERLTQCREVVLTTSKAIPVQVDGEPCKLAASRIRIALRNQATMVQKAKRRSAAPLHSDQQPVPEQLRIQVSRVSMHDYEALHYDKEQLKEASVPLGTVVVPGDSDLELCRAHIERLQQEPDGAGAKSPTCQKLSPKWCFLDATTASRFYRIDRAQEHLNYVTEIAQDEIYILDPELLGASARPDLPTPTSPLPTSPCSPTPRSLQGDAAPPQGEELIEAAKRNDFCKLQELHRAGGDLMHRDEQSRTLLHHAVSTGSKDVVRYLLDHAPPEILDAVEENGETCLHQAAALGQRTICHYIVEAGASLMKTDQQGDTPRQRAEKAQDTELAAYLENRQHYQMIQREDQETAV
IC50 [1] [nM],IC50 [2] [nM],Structure (SMILES)
339,57,"CC[C@H]1CN(C(C)c2ccc(C3CC3)nc2F)[C@H](CC)CN1c1cc(=O)n(C)n2cc(CC#N)nc12 (single isomer, unassigned) [Compound A42a]"
1060,1250,"CC[C@H]1CN(C(C)c2ccc(C3CC3)nc2F)[C@H](CC)CN1c1cc(=O)n(C)n2cc(CC#N)nc12 (single isomer, unassigned) [Compound A42b]"
285,202,"CC[C@@H]1CN(c2cc(=O)n(C)n3cc(CC#N)nc23)[C@@H](C)CN1C(C)c1ccc(C2CC2)nc1 (single isomer, unassigned) [Compound A43a]"
1490,> 10000,"CC[C@@H]1CN(c2cc(=O)n(C)n3cc(CC#N)nc23)[C@@H](C)CN1C(C)c1ccc(C2CC2)nc1 (single isomer, unassigned) [Compound A43b]"
941,8,"CC[C@H]1CN(C(C)c2ccc(OC(C)C)nc2)[C@H](CC)CN1c1cc(=O)n(C)n2cc(CC#N)nc12 (single isomer, unassigned) [Compound A45a]"
835,1060,"CC[C@H]1CN(C(C)c2ccc(OC(C)C)nc2)[C@H](CC)CN1c1cc(=O)n(C)n2cc(CC#N)nc12 (single isomer, unassigned) [Compound A45b]"
122,6.4,"CC[C@H]1CN(C(C)c2ccc(C(C)(C)F)nc2)[C@H](CC)CN1c1cc(=O)n(C)n2cc(CC#N)nc12 (single isomer, unassigned) [Compound A46a]"
671,877,"CC[C@H]1CN(C(C)c2ccc(C(C)(C)F)nc2)[C@H](CC)CN1c1cc(=O)n(C)n2cc(CC#N)nc12 (single isomer, unassigned) [Compound A46b]"
11,4,"CC[C@H]1CN(C(C)c2ccc3ncsc3c2)[C@H](CC)CN1c1cc(=O)n(C)n2cc(CC#N)nc12 (single isomer, unassigned) [Compound A53a]"
235,215,"CC[C@H]1CN(C(C)c2ccc3ncsc3c2)[C@H](CC)CN1c1cc(=O)n(C)n2cc(CC#N)nc12 (single isomer, unassigned) [Compound A53b]"
87,11,"CC[C@H]1CN(C(C)c2ccc3nc(C)sc3c2)[C@H](CC)CN1c1cc(=O)n(C)n2cc(CC#N)nc12 (single isomer, unassigned) [Compound A56a]"
659,638,"CC[C@H]1CN(C(C)c2ccc3nc(C)sc3c2)[C@H](CC)CN1c1cc(=O)n(C)n2cc(CC#N)nc12 (single isomer, unassigned) [Compound A56b]"
7.9,6.8,"CC[C@H]1CN(C(C)c2ccc3ncsc3n2)[C@H](CC)CN1c1cc(=O)n(C)n2cc(CC#N)nc12 (single isomer, unassigned) [Compound A57a]"
172,357,"CC[C@H]1CN(C(C)c2ccc3ncsc3n2)[C@H](CC)CN1c1cc(=O)n(C)n2cc(CC#N)nc12 (single isomer, unassigned) [Compound A57b]"
1220,2160,"CC[C@H]1CN(C(C)c2ccc3nc(C)sc3n2)[C@H](CC)CN1c1cc(=O)n(C)n2cc(CC#N)nc12 (single isomer, unassigned) [Compound A58a]"
13.3,7.3,"CC[C@H]1CN(C(C)c2ccc3nc(C)sc3n2)[C@H](CC)CN1c1cc(=O)n(C)n2cc(CC#N)nc12 (single isomer, unassigned) [Compound A58b]"
54,26,"CC[C@H]1CN(C(C)c2cc3scnc3cc2F)[C@H](CC)CN1c1cc(=O)n(C)n2cc(CC#N)nc12 (single isomer, unassigned) [Compound A59a]"
1580,2610,"CC[C@H]1CN(C(C)c2cc3scnc3cc2F)[C@H](CC)CN1c1cc(=O)n(C)n2cc(CC#N)nc12 (single isomer, unassigned) [Compound A59b]"

IC50 [1] [nM],IC50 [2] [nM],Structure (SMILES)
826,189,"CC[C@@H]1CN(c2cc(=O)n(C)n3cc(CC#N)nc23)[C@@H](C)CN1C(C)c1cc2sc(C)nc2cc1F (single isomer, unassigned) [Compound A60a]"
4410,2930,"CC[C@@H]1CN(c2cc(=O)n(C)n3cc(CC#N)nc23)[C@@H](C)CN1C(C)c1cc2sc(C)nc2cc1F (single isomer, unassigned) [Compound A60b]"
400,126,"CC[C@H]1CN(C(C)c2cc3sc(C)nc3cc2F)[C@H](CC)CN1c1cc(=O)n(C)n2cc(CC#N)nc12 (single isomer, unassigned) [Compound A61a]"
5520,2000,"CC[C@H]1CN(C(C)c2cc3sc(C)nc3cc2F)[C@H](CC)CN1c1cc(=O)n(C)n2cc(CC#N)nc12 (single isomer, unassigned) [Compound A61b]"
105,8.5,"CC[C@H]1CN(C(C)c2ccc3ncsc3c2F)[C@H](CC)CN1c1cc(=O)n(C)n2cc(CC#N)nc12 (single isomer, unassigned) [Compound A62a]"
2390,1210,"CC[C@H]1CN(C(C)c2ccc3ncsc3c2F)[C@H](CC)CN1c1cc(=O)n(C)n2cc(CC#N)nc12 (single isomer, unassigned) [Compound A62b]"
683,6,"CC[C@@H]1CN(c2cc(=O)n(C)n3cc(CC#N)nc23)[C@@H](C)CN1C(C)c1ccc2nc(C)sc2c1F (single isomer, unassigned) [Compound A63a]"
5780,1790,"CC[C@@H]1CN(c2cc(=O)n(C)n3cc(CC#N)nc23)[C@@H](C)CN1C(C)c1ccc2nc(C)sc2c1F (single isomer, unassigned) [Compound A63b]"
47,7,"CC[C@H]1CN(C(C)c2ccc3scnc3c2)[C@H](CC)CN1c1cc(=O)n(C)n2cc(CC#N)nc12 (single isomer, unassigned) [Compound A65a]"
157,158,"CC[C@H]1CN(C(C)c2ccc3scnc3c2)[C@H](CC)CN1c1cc(=O)n(C)n2cc(CC#N)nc12 (single isomer, unassigned) [Compound A65b]"
105,22,"CC[C@H]1CN(C(C)c2ccc3scnc3c2F)[C@H](CC)CN1c1cc(=O)n(C)n2cc(CC#N)nc12 (single isomer, unassigned) [Compound A66a]"
1640,1440,"CC[C@H]1CN(C(C)c2ccc3scnc3c2F)[C@H](CC)CN1c1cc(=O)n(C)n2cc(CC#N)nc12 (single isomer, unassigned) [Compound A66b]"
26,104,"CC#CCc1cn2c(n1)c(N1C[C@@H](CC)N(C(C)c3ccc4nc(C)sc4c3)C[C@@H]1CC)cc(=O)n2C (single isomer, unassigned) [Compound A68a]"
527,> 10000,"CC#CCc1cn2c(n1)c(N1C[C@@H](CC)N(C(C)c3ccc4nc(C)sc4c3)C[C@@H]1CC)cc(=O)n2C (single isomer, unassigned) [Compound A68b]"
102,244,"CC[C@H]1CN(C(C)c2ccc(C3CC3(F)F)nc2)[C@H](CC)CN1c1cc(=O)n(C)n2cc(CC#N)nc12 (single isomer, unassigned) [Compound A70a]"
466,886,"CC[C@H]1CN(C(C)c2ccc(C3CC3(F)F)nc2)[C@H](CC)CN1c1cc(=O)n(C)n2cc(CC#N)nc12 (single isomer, unassigned) [Compound A70b]"
177,77,"CC[C@H]1CN(C(C)c2ccc(C3CC3)nc2)[C@H](CC)CN1c1c(F)c(=O)n(C)n2cc(CC#N)nc12 (single isomer, unassigned) [Compound A73a]"
832,302,"CC[C@H]1CN(C(C)c2ccc(C3CC3)nc2)[C@H](CC)CN1c1c(F)c(=O)n(C)n2cc(CC#N)nc12 (single isomer, unassigned) [Compound A73b]"
